Measured values published in patent US20210246121A1, “SOLID FORMS OF APOL1 INHIBITOR AND METHODS OF USING SAME” (Vertex Pharmaceuticals Incorporated, priority 2020, published 2021).

Experiment: relative thermodynamic stability of solid forms of Compound I as a function of water activity
Format: physicochemical
Conditions: from about 0 to 0.5 or 0.6 water activity at room temperature

thermodynamic stability relative to other forms of the compound: most thermodynamically stable form
SMILES: O=C(CCc1c(-c2ccc(F)cc2)[nH]c2ccccc12)N[C@@H]1C(=O)NC[C@H]1O [Compound 1 Form B]
